Measured values from paper PMC5142810, “Structure of protein O-mannose kinase reveals a unique active site architecture” (eLife, 2016).

Legend:
DrPOMK = biological target: T1, DrPOMK (Danio rerio, UniProt Q5U3W1); assay: 1H NMR titration, Man H1 peak intensity; assay type: binding; details: read-out: dissociation constant
T1 construct: gene pomk; lumenal kinase domain, residues 49-347, secreted from Hi5 insect cells (baculovirus); N-terminal 6xHis-MBP removed by TEV for crystallization

CoPOMK = biological target: T2, CoPOMK (Capsaspora owczarzaki, UniProt A0A0D2WXW5); assay: radiometric kinase assay, […] incorporation, C18 cartridge; assay type: biochemical; details: 20 μM GGM-MU, 100 μM ATP, 10 mM MnCl2, 50 mM HEPES pH 7.5, 20 °C, 30 min
T2 construct: gene CAOG_008172; residues 112-610, 6xHis-MBP fusion (psMBP2), secreted from Hi5 insect cells (baculovirus)
T2 sequence (A0A0D2WXW5 112-610): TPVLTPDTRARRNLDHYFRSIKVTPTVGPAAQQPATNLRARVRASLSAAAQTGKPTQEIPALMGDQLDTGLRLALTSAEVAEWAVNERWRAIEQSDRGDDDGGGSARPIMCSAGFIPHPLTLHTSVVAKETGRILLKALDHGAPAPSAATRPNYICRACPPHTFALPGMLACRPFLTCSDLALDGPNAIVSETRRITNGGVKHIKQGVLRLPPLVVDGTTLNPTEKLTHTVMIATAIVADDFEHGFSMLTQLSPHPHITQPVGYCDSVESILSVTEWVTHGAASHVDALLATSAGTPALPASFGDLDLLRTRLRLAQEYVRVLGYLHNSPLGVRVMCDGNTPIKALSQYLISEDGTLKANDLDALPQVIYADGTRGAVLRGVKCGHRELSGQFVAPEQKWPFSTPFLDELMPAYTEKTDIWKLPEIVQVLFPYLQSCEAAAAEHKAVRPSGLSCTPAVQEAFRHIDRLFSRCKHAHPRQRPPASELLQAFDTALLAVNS

HsPOMK = biological target: T3, HsPOMK (Homo sapiens, UniProt Q9H5K3); assay: as above; assay type: biochemical; details: 20 μM GGM-MU, 100 μM ATP, 10 mM MnCl2, 50 mM HEPES pH 7.5, 20 °C, 30 min
T3 construct: gene POMK; lumenal kinase domain, residues 49-350, 6xHis-MBP fusion kept, secreted from Hi5 insect cells (baculovirus)
T3 sequence (Q9H5K3 49-350): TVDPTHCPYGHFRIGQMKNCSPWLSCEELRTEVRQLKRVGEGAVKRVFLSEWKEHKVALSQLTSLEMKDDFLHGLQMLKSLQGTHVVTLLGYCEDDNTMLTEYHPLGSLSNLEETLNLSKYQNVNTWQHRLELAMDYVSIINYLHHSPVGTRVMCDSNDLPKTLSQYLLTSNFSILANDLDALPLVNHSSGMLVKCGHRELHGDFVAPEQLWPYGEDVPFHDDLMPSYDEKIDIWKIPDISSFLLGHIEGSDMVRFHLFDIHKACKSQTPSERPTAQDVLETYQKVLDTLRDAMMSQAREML

T1 sequence (Q5U3W1 49-347): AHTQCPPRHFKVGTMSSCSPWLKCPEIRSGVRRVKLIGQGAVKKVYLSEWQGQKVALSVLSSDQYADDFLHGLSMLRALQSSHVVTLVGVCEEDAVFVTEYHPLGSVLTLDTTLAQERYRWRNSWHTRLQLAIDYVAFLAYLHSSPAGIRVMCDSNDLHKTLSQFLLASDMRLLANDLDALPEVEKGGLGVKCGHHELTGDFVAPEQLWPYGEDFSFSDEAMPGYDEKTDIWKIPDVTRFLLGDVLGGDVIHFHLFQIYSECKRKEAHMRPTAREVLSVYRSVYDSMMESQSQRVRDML

With CC(=O)N[C@H]1[C@H](O[C@H]2[C@H](O)[C@@H](CO)O[C@@H](O[C@H]3[C@H](O)[C@H](O)[C@@H](Oc4ccc5c(C)cc(=O)oc5c4)O[C@@H]3CO)[C@@H]2NC(C)=O)O[C@H](CO)[C@H](O)[C@@H]1O [GGM-MU] the Kd (DrPOMK) was 30.2 µM, the “radiometric kinase assay, 32P incorporation, C18 cartridge” value (CoPOMK) was “POMK homologues phosphorylates GGM-MU” and the “radiometric kinase assay, 32P incorporation, C18 cartridge” value (HsPOMK) was “POMK homologues phosphorylates GGM-MU”.
